From PubChem BioAssay AID248 (DTP/NCI, 2004)
“And” between values parts separate entries of the source, which are not always exact repeats. Identical values can stand only once. Inconclusive results and toxic doses are left out. Rule as the data show it: active = T/C of 150% or more; inactive = T/C below 125%.

Test system: L1210 leukemia ip in BDF1 mice, survival T/C
Test: NCI In Vivo Anticancer Drug Screen. Data for tumor model L1210 Leukemia (intraperitoneal) in B6D2F1 (BDF1) mice
Settings: endpoint: mean survival time, higher = longer survival
Summary of the method: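 Each compound was tested against a transplantable tumor grown in mice. The endpoint was survival, with treated animals benchmarked against vehicle controls as a simple ratio.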

[1] = dose: 100.0 mg/kg/injection, schedule: Q04DX003 (ip), vehicle: saline
[2] = dose: 100.0 mg/kg/injection, schedule: Q01DX009 (ip), vehicle: Klucel (hydroxypropylcellulose) (HPC)
[3] = dose: 200.0 mg/kg/injection, schedule: Q01DX009 (ip), vehicle: Klucel (hydroxypropylcellulose) (HPC)
[4] = dose: 12.5 mg/kg/injection, schedule: Q01DX009 (ip), vehicle: saline
[5] = dose: 50.0 mg/kg/injection, schedule: Q04DX003 (ip), vehicle: saline
[6] = dose: 100.0 mg/kg/injection, schedule: Q04DX003 (ip), vehicle: saline with Tween-80
[7] = dose: 100.0 mg/kg/injection, schedule: Q01DX001 (ip), vehicle: saline

Measured: T/C

CC(C)N1c2c(nc(N)[nH]c2=O)NCC1CNc1ccc(C(=O)NC(CCC(=O)O)C(=O)O)cc1 (stereo not drawn)
inactive: dose: 100.0 mg/kg/injection, schedule: Q01DX009 (ip), vehicle: saline 102 % of control | [1] 104 % of control | dose: 200.0 mg/kg/injection, schedule: Q01DX009 (ip), vehicle: saline 102 % of control | dose: 200.0 mg/kg/injection, schedule: Q04DX003 (ip), vehicle: saline 98 % of control | dose: 400.0 mg/kg/injection, schedule: Q01DX009 (ip), vehicle: saline 102 % of control | dose: 400.0 mg/kg/injection, schedule: Q04DX003 (ip), vehicle: saline 98 % of control

Cc1cccc(OCCOC(=O)Nc2ccccc2C(F)(F)F)c1
inactive: dose: 100.0 mg/kg/injection, schedule: Q04DX003 (ip), vehicle: Klucel (hydroxypropylcellulose) (HPC) 87 % of control | dose: 200.0 mg/kg/injection, schedule: Q04DX003 (ip), vehicle: Klucel (hydroxypropylcellulose) (HPC) 88 % of control | dose: 400.0 mg/kg/injection, schedule: Q04DX003 (ip), vehicle: Klucel (hydroxypropylcellulose) (HPC) 90 % of control

O=C(Nc1ccccc1C(=O)N/N=C/c1ccc(Cl)cc1Cl)c1ccccc1Cl
inactive: [2] 90 % of control | [3] 97 % of control | dose: 400.0 mg/kg/injection, schedule: Q01DX009 (ip), vehicle: Klucel (hydroxypropylcellulose) (HPC) 86 % of control

Cc1cccc(C(=O)[O][Pb]([CH3])([CH3])[CH3])c1
inactive: dose: 12.5 mg/kg/injection, schedule: Q04DX002 (ip), vehicle: Klucel (hydroxypropylcellulose) (HPC) 100 % of control

C=C(C)C1(Cc2ccccc2)C(=O)NC(=O)NC1=O
inactive: dose: 75.0 mg/kg/injection, schedule: Q01DX001 (ip), vehicle: saline 98 % of control

COC(=O)C(c1ccccc1)C1CCCCN1 (stereo not drawn)
inactive: dose: 6.25 mg/kg/injection, schedule: Q01DX009 (ip), vehicle: saline 105 % of control | [4] 98 % of control | dose: 25.0 mg/kg/injection, schedule: Q01DX009 (ip), vehicle: saline 96 % of control | dose: 25.0 mg/kg/injection, schedule: Q04DX003 (ip), vehicle: saline 97 % of control | dose: 50.0 mg/kg/injection, schedule: Q01DX009 (ip), vehicle: saline 100 % of control | [5] 97 % of control | [1] 108 % of control

O=C(c1ccc(-c2ccccc2)cc1)C(Br)CCBr (stereo not drawn)
inactive: [6] 106 % of control | dose: 200.0 mg/kg/injection, schedule: Q04DX003 (ip), vehicle: saline with Tween-80 93 % of control

Cc1sc(Cc2ccccc2)nc1-c1ccc(N=Cc2ccc(N(CCOS(C)(=O)=O)CCOS(C)(=O)=O)cc2)cc1
inactive: dose: 25.0 mg/kg/injection, schedule: Q04DX003 (ip), vehicle: saline with Tween-80 113 % of control | dose: 50.0 mg/kg/injection, schedule: Q04DX003 (ip), vehicle: saline with Tween-80 123 % of control | [6] 107 % of control and 114 % of control

CCOC(=O)c1ccc(NCC(C)(C)N)cc1
inactive: [1] 97 % of control

C/C=C/C(=O)Nc1ccc(CC)cc1
inactive: [2] 95 % of control | [3] 92 % of control

CN(C)Cc1cccc(C(F)(F)F)c1C(O)c1ccccc1 (stereo not drawn)
inactive: dose: 50.0 mg/kg/injection, schedule: Q01DX001 (ip), vehicle: saline 100 % of control | [7] 94 % of control | dose: 200.0 mg/kg/injection, schedule: Q01DX001 (ip), vehicle: saline 103 % of control | dose: 400.0 mg/kg/injection, schedule: Q01DX001 (ip), vehicle: saline 100 % of control

CCCCc1cnc(NCCCC(N)C(=O)O)nc1 (stereo not drawn)
inactive: dose: 25.0 mg/kg/injection, schedule: Q04DX002 (ip), vehicle: saline 100 % of control | dose: 50.0 mg/kg/injection, schedule: Q04DX002 (ip), vehicle: saline 95 % of control | dose: 100.0 mg/kg/injection, schedule: Q04DX002 (ip), vehicle: saline 92 % of control

O=C(Nc1ccc(Cl)cc1)Nc1cccc2nsnc12
inactive: dose: 100.0 mg/kg/injection, schedule: Q04DX002 (ip), vehicle: saline with Tween-80 97 % of control | dose: 200.0 mg/kg/injection, schedule: Q04DX002 (ip), vehicle: saline with Tween-80 93 % of control | dose: 400.0 mg/kg/injection, schedule: Q04DX002 (ip), vehicle: saline with Tween-80 90 % of control

CN(C)CC/C=C1\c2ccccc2Sc2ccc(C(F)(F)F)cc21
inactive: dose: 0.78 mg/kg/injection, schedule: Q01DX009 (ip), vehicle: saline 97 % of control | dose: 0.78 mg/kg/injection, schedule: Q04DX003 (ip), vehicle: saline 102 % of control | dose: 1.56 mg/kg/injection, schedule: Q01DX009 (ip), vehicle: saline 105 % of control | dose: 1.56 mg/kg/injection, schedule: Q04DX003 (ip), vehicle: saline 105 % of control | dose: 3.12 mg/kg/injection, schedule: Q01DX009 (ip), vehicle: saline 115 % of control | dose: 3.12 mg/kg/injection, schedule: Q04DX003 (ip), vehicle: saline 100 % of control | dose: 6.0 mg/kg/injection, schedule: Q01DX Z (ip), vehicle: carboxymethylcellulose (CMC) 111 % of control | dose: 6.25 mg/kg/injection, schedule: Q04DX003 (ip), vehicle: saline 107 % of control | dose: 9.0 mg/kg/injection, schedule: Q01DX Z (ip), vehicle: carboxymethylcellulose (CMC) 103 % of control and 108 % of control | dose: 9.0 mg/kg/injection, schedule: Q01DX Z (ip), vehicle: other 110 % of control | [4] 122 % of control | dose: 12.5 mg/kg/injection, schedule: Q04DX003 (ip), vehicle: saline 105 % of control | dose: 14.0 mg/kg/injection, schedule: Q01DX Z (ip), vehicle: carboxymethylcellulose (CMC) 100 % of control and 111 % of control | dose: 17.5 mg/kg/injection, schedule: Q01DX001 (ip), vehicle: saline 114 % of control | dose: 21.0 mg/kg/injection, schedule: Q01DX Z (ip), vehicle: carboxymethylcellulose (CMC) 103 % of control | dose: 21.0 mg/kg/injection, schedule: Q01DX Z (ip), vehicle: other 110 % of control | dose: 31.0 mg/kg/injection, schedule: Q01DX Z (ip), vehicle: carboxymethylcellulose (CMC) 110 % of control | dose: 35.0 mg/kg/injection, schedule: Q01DX001 (ip), vehicle: saline 104 % of control | [5] 120 % of control | dose: 70.0 mg/kg/injection, schedule: Q01DX001 (ip), vehicle: saline 108 % of control | dose: 140.0 mg/kg/injection, schedule: Q01DX001 (ip), vehicle: saline 123 % of control

C[n+]1cc2c3ccccc3c(N)cc2c2ccccc21
inactive: dose: 6.25 mg/kg/injection, schedule: Q01DX009 (ip), vehicle: water 114 % of control | dose: 12.5 mg/kg/injection, schedule: Q01DX009 (ip), vehicle: water 118 % of control | dose: 25.0 mg/kg/injection, schedule: Q01DX009 (ip), vehicle: water 117 % of control | dose: 25.0 mg/kg/injection, schedule: Q04DX003 (ip), vehicle: water 118 % of control | dose: 50.0 mg/kg/injection, schedule: Q01DX009 (ip), vehicle: water 90 % of control | dose: 50.0 mg/kg/injection, schedule: Q04DX003 (ip), vehicle: water 98 % of control | dose: 100.0 mg/kg/injection, schedule: Q04DX003 (ip), vehicle: water 93 % of control and 107 % of control

CC(C)(C)NN
inactive: dose: 5.0 mg/kg/injection, schedule: Q01DX001 (ip), vehicle: saline 102 % of control | dose: 10.0 mg/kg/injection, schedule: Q01DX001 (ip), vehicle: saline 104 % of control | dose: 20.0 mg/kg/injection, schedule: Q01DX001 (ip), vehicle: saline 98 % of control | dose: 40.0 mg/kg/injection, schedule: Q01DX001 (ip), vehicle: saline 94 % of control | dose: 80.0 mg/kg/injection, schedule: Q01DX001 (ip), vehicle: saline 96 % of control | [7] 101 % of control
